The text below walks through data of paper PMC9121888 (Pharmacology Research & Perspectives, 2022).

Like-named read-outs stand apart in the source and are kept apart here.

The nature of data set [1]: Study 1 plasma pharmacokinetics of verinurad, allopurinol and oxypurinol. Particulars: for Tmax: median (range). The format is in vivo, human. Here is the method: Cohort 1 was randomized, double‐blind, and placebo‐controlled and consisted of 12 healthy Asian participants, of whom <50% were Chinese. Cohort 2 was open‐label, consisting of 9 healthy Chinese participants.
In both studies, participants received verinurad capsules with an extended‐release profile. On the days of pharmacokinetic sampling, treatment was given in fasting state.
Verinurad plasma samples were analyzed using similar methodologies as described by Shen et al.[13] with lower and upper limits of quantification of 0.100 ng/mL and 40.0 ng/mL, respectively.

The test system of data set [2] is serum uric acid (sUA) and urinary uric acid (uUA). Particulars: for sUA mean percentage change from screening: after 300 mg allopurinol QD for 7 days, day 1 (pre-dose); for sUA level at baseline (day –1): following 7 days of 300 mg allopurinol run-in.
Where [3] appears, read: human, plasma, oral, healthy Asian participants, 24 mg verinurad + 300 mg allopurinol QD, Day 1, geometric mean (gCV%), read-out: Cmax.
Setting [4] is: human, plasma, oral, healthy Asian participants, 24 mg verinurad + 300 mg allopurinol QD, Day 1, read-out: tmax.
Where [5] appears, read: human, plasma, oral, healthy Asian participants, 24 mg verinurad + 300 mg allopurinol QD, Day 7, geometric mean (gCV%), read-out: AUCτ.
Where [6] appears, read: human, plasma, oral, healthy Asian participants, 24 mg verinurad + 300 mg allopurinol QD, Day 7, geometric mean (gCV%), read-out: Cmax.
Where [7] appears, read: human, plasma, oral, healthy Chinese participants, 12 mg verinurad + 300 mg allopurinol day 1 and QD days 3-9, Day 9, geometric mean (gCV%), read-out: AUCτ.
Setting [8] is: human, plasma, oral, healthy Chinese participants, 12 mg verinurad + 300 mg allopurinol day 1 and QD days 3-9, Day 9, read-out: tmax.
[9] abbreviates: human, plasma, oral, healthy Chinese participants, 12 mg verinurad + 300 mg allopurinol, Day 1, geometric mean (gCV%), read-out: AUC.
The mark [10] stands for this setting: human, plasma, oral, healthy Chinese participants, 12 mg verinurad + 300 mg allopurinol, Day 1, geometric mean (gCV%), read-out: AUCτ.
[11] abbreviates: human, plasma, oral, healthy Chinese participants, 12 mg verinurad + 300 mg allopurinol, Day 1, geometric mean (gCV%), read-out: Cmax.
The mark [12] stands for this setting: human, plasma, oral, healthy Chinese participants, 12 mg verinurad + 300 mg allopurinol, Day 1, read-out: tmax.

For the molecule `O=c1[nH]c(=O)c2c[nH]nc2[nH]1` [Oxypurinol, oxypurinol], the AUCτ in data set [1] (healthy Asian participants, 24 mg verinurad + 300 mg allopurinol QD, Day 1, geometric mean (gCV%)) is recorded as 180700 (18.3) ng·h/mL. Also, the Tmax in data set [1] (healthy Asian participants, 24 mg verinurad + 300 mg allopurinol QD, Day 7) was 4.00 (3.00–6.00) h; in data set [1] (setting [4]) it was 3 h; in data set [1] (setting [8]) it was 3.1 h; in data set [1] (setting [12]), 2 h. For the same molecule, the Cmax in data set [1] (healthy Chinese participants, 12 mg verinurad + 300 mg allopurinol day 1 and QD days 3-9, Day 9, geometric mean (gCV%)) is 8520 (10.5) ng/mL; in data set [1] (setting [3]), 11100 ng/mL; in data set [1] (setting [6]), 7700 ng/mL; in data set [1] (setting [11]) it was 11800 ng/mL. The AUC was 120000 ng·h/mL in data set [1] (setting [5]), 139000 ng·h/mL in data set [1] (setting [7]), 342000 ng·h/mL in data set [1] (setting [9]) and 201000 ng·h/mL in data set [1] (setting [10]).
For `Oc1ncnc2[nH]ncc12` [allopurinol, reference compound], the AUC in data set [1] (human, plasma, oral, healthy Asian participants, 24 mg verinurad + 300 mg allopurinol QD, Day 1, geometric mean (gCV%), read-out: AUC) is 6220 ng·h/mL; in data set [1] (human, plasma, oral, healthy Asian participants, 24 mg verinurad + 300 mg allopurinol QD, Day 1, geometric mean (gCV%), read-out: AUCτ), 6230 ng·h/mL; in data set [1] (setting [5]), 6020 ng·h/mL; in data set [1] (setting [7]), 5740 ng·h/mL; in data set [1] (setting [9]), 6210 ng·h/mL; in data set [1] (setting [10]), 6210 ng·h/mL. For the same molecule, the Cmax worked out at 1770 ng/mL in data set [1] (setting [3]); 1780 ng/mL in data set [1] (setting [6]); 1570 ng/mL in data set [1] (human, plasma, oral, healthy Chinese participants, 12 mg verinurad + 300 mg allopurinol day 1 and QD days 3-9, Day 9, geometric mean (gCV%), read-out: Cmax); 1940 ng/mL in data set [1] (setting [11]). The Tmax in data set [1] (setting [4]) was 2 h; in data set [1] (human, plasma, oral, healthy Asian participants, 24 mg verinurad + 300 mg allopurinol QD, Day 7, read-out: tmax), 3 h; in data set [1] (setting [8]), 2.55 h; in data set [1] (setting [12]), 1.52 h. In addition, the “sUA mean percentage change from screening” value is reported as −26.1% in data set [2] (healthy Asian participants) and −23.5% in data set [2] (healthy Chinese participants). Moreover, the “sUA level at baseline (day –1)” value in data set [2] (healthy Asian participants, screening 6.31 mg/dL) came out at 4.77 mg/dL; in data set [2] (healthy Chinese participants, screening 5.64 mg/dL) it was 4.49 mg/dL.
